Data published in patent US10323026B2, “Heterocyclic compound” (Takeda Pharmaceutical Company Limited, priority 2016, dated 2019).

Biological target: T1, His-hMAGL (recombinant polyhistidine tagged human MAGL protein) (Homo sapiens, UniProt Q99685)
T1 construct: polyhistidine (His) (N); made in house; host or cells: E. coli BL21(DE3)
T1 sequence (Q99685 1-303): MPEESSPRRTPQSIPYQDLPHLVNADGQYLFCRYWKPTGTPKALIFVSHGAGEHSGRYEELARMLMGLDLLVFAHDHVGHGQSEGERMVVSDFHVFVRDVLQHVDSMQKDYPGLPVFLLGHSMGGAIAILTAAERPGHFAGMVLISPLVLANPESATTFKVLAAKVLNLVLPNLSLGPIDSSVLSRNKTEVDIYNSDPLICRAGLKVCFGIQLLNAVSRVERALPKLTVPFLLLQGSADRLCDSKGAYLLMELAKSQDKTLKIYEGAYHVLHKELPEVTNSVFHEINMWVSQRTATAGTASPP
Test: Measurement of MAGL inhibitory activity (RapidFire-mass spectrometry of arachidonic acid produced from 2-arachidonylglycerol)
Assay type: biochemical
Conditions: test compound 10 μM, His-hMAGL, substrate 2-arachidonylglycerol, 60 min preincubation; for inhibition at 10 µM: read-out: % inhibition (10 μM)
Protocol: Furthermore, acetonitrile (50 μL) containing 3 μM arachidonic acid-d8 (Cayman Chemical Company) was added and the mixture was stirred.
The amount of arachidonic acid in the obtained enzyme reaction mixture was calculated by measuring by RapidFire-mass spectrometry and correcting by the amount of arachidonic acid-d8. High Throughput online solid phase extraction was performed using RapidFire 300™ system (Agilent Technologies, Inc.). Samples were loaded on SPE C4 cartridge (Agilent Technologies, Inc.) and desalted with 0.2 (v/v) % acetic acid (Wako Pure Chemical Industries, Ltd.) in ultrapure water/acetonitrile (70/30, v/v) at a flow rate of 1.5 mL/min, eluted at a flow rate of 0.5 mL/min with 0.2(v/v) % acetic acid dissolved in acetonitrile/ultrapure water (90/10, v/v), and injected into the mass spectrometry part. The injection needle was washed with ultrapure water (500 millisecond) and acetonitrile (500 millisecond) to minimize carry-over. […] The RapidFire300 system was controlled by RapidFire UI software version 3.6 (Agilent Technologies, Inc.).
The mass spectrometry of the resultant product was performed using API4000™ triple quadrupole mass spectrometer (AB SCIEX) equipped with an electrospray ion source (TurboIon Spray™) in a negative selected reaction monitoring (SRM) mode. The conditions of SRM are shown below. The parameters of the instrument were optimized as follows: capillary temperature 600° C., ion spray voltage −4.5 kV, collision gas 8, curtain gas 15 psi, ion source gas 1 60 psi, ion source gas 2 60 psi. The mass spectrometer was controlled by Analyst™ software version 1.5.1 (AB SCIEX). The peak area integration was analyzed using RapidFire integrator software version 3.6 (Agilent Technologies, Inc.).
MAGL inhibitory rate (%) was calculated according to the following calculation formula. (1-(arachidonic acid production amount of test compound addition group−arachidonic acid production amount of enzyme-free group)÷(arachidonic acid production amount of test compound-free group−arachidonic acid production amount of enzyme-free group))×100

inhibition at 10 µM [%] | SMILES | other results
100 | CCc1cc(OCC2CN(C(=O)[C@H]3C[C@]4(COC(=O)N4)C3)C2)c(F)cc1C(F)(F)F [Example 86, (2s,4s)-2-((3-((5-ethyl-2-fluoro-4-(trifluoromethyl)phenoxy)methyl)azetidin-1-yl)carbonyl)-7-oxa-5-azaspiro[3.4]octan-6-one] | –
100 | O=C1N[C@]2(CO1)C[C@H](C(=O)N1CC(CC(F)(F)c3ccc(C(F)(F)F)cc3F)C1)C2 [Example 91, (2s,4s)-2-((3-(2,2-difluoro-2-(2-fluoro-4-(trifluoromethyl)phenyl)ethyl)azetidin-1-yl)carbonyl)-7-oxa-5-azaspiro[3.4]octan-6-one] | –
100 | Cc1cc(Cl)ccc1COC1CN(C(=O)[C@H]2C[C@]3(COC(=O)N3)C2)C1 [Example 92, (2s,4s)-2-((3-((4-chloro-2-methylbenzyl)oxy)azetidin-1-yl)carbonyl)-7-oxa-5-azaspiro[3.4]octan-6-one] | –
100 | Cc1ccc(COC2CN(C(=O)[C@H]3C[C@]4(COC(=O)N4)C3)C2)c(F)c1F [Example 94, (2s,4s)-2-((3-((2,3-difluoro-4-methylbenzyl)oxy)azetidin-1-yl)carbonyl)-7-oxa-5-azaspiro[3.4]octan-6-one] | –
100 | O=C1N[C@]2(CO1)C[C@H](C(=O)N1CC(OCc3ccc(C(F)(F)F)c(F)c3F)C1)C2 [Example 96, (2s,4s)-2-((3-((2,3-difluoro-4-(trifluoromethyl)benzyl)oxy)azetidin-1-yl)carbonyl)-7-oxa-5-azaspiro[3.4]octan-6-one] | –
100 | O=C1N[C@]2(CO1)C[C@H](C(=O)N1CC(CC(F)(F)c3ccc(C(F)(F)F)c(F)c3)C1)C2 [Example 99, (2s,4s)-2-((3-(2,2-difluoro-2-(3-fluoro-4-(trifluoromethyl)phenyl)ethyl)azetidin-1-yl)carbonyl)-7-oxa-5-azaspiro[3.4]octan-6-one] | –

The next lines start with the compound.

SMILES | inhibition at 10 µM [%] | other results
CC1(C2CCN(C(=O)[C@H]3C[C@]4(COC(=O)N4)C3)CC2)Cc2cc(C(F)(F)F)ccc2O1 (some centres unmarked) [Example 68, (2s,4s)-2-((4-(2-methyl-5-(trifluoromethyl)-2,3-dihydro-1-benzofuran-2-yl)piperidin-1-yl)carbonyl)-7-oxa-5-azaspiro[3.4]octan-6-one] | – | % inhibition (10 μM) (10 µM): 100%
CC1(C2CCN(C(=O)[C@H]3C[C@]4(COC(=O)N4)C3)CC2)Cc2cc(C(F)(F)F)ccc2O1 (some centres unmarked) [Example 69, (2s,4s)-2-((4-(2-methyl-5-(trifluoromethyl)-2,3-dihydro-1-benzofuran-2-yl)piperidin-1-yl)carbonyl)-7-oxa-5-azaspiro[3.4]octan-6-one] | – | % inhibition (10 μM) (10 µM): 101%
CC1(C2CCN(C(=O)[C@H]3C[C@]4(COC(=O)N4)C3)CC2)Cc2ccc(C(F)(F)F)cc2O1 (some centres unmarked) [Example 70, (2s,4s)-2-((4-(2-methyl-6-(trifluoromethyl)-2,3-dihydro-1-benzofuran-2-yl)piperidin-1-yl)carbonyl)-7-oxa-5-azaspiro[3.4]octan-6-one] | – | % inhibition (10 μM) (10 µM): 101%
CC1(C2CCN(C(=O)[C@H]3C[C@]4(COC(=O)N4)C3)CC2)Cc2ccc(C(F)(F)F)cc2O1 (some centres unmarked) [Example 71, (2s,4s)-2-((4-(2-methyl-6-(trifluoromethyl)-2,3-dihydro-1-benzofuran-2-yl)piperidin-1-yl)carbonyl)-7-oxa-5-azaspiro[3.4]octan-6-one] | – | % inhibition (10 μM) (10 µM): 101%
Cc1cc(OCC2CN(C(=O)[C@H]3C[C@]4(COC(=O)N4)C3)C2)c(F)cc1C(F)(F)F [Example 72, (2s,4s)-2-((3-((2-fluoro-5-methyl-4-(trifluoromethyl)phenoxy)methyl)azetidin-1-yl)carbonyl)-7-oxa-5-azaspiro[3.4]octan-6-one] | 101 | –
CC(Oc1ccc(F)cc1C(F)(F)F)C1CCN(C(=O)[C@H]2C[C@]3(CCC(=O)N3)C2)CC1 (some centres unmarked) [Example 73, (2r,4s)-2-((4-(1-(4-fluoro-2-(trifluoromethyl)phenoxy)ethyl)piperidin-1-yl)carbonyl)-5-azaspiro[3.4]octan-6-one] | 100 | –
CC(Oc1ccc(F)c(F)c1F)C1CCN(C(=O)[C@H]2C[C@]3(CCC(=O)N3)C2)CC1 (some centres unmarked) [Example 74, (2r,4s)-2-((4-(1-(2,3.4-trifluorophenoxy)ethyl)piperidin-1-yl)carbonyl)-5-azaspiro[3.4]octan-6-one] | 101 | –
O=C1N[C@]2(CO1)C[C@H](C(=O)N1CC(COc3c(Cl)cc(F)cc3Cl)C1)C2 [Example 75, (2s,4s)-2-((3-((2,6-dichloro-4-fluorophenoxy)methyl)azetidin-1-yl)carbonyl)-7-oxa-5-azaspiro[3.4]octan-6-one] | 100 | –
O=C1N[C@]2(CO1)C[C@H](C(=O)N1CC(COc3ccc(C(F)(F)F)cc3Cl)C1)C2 [Example 76, (2s,4s)-2-((3-((2-chloro-4-(trifluoromethyl)phenoxy)methyl)azetidin-1-yl)carbonyl)-7-oxa-5-azaspiro[3.4]octan-6-one] | 100 | –
O=C1N[C@]2(CO1)C[C@H](C(=O)N1CC(COc3ccc(Cl)cc3Cl)C1)C2 [Example 79, (2s,4s)-2-((3-((2,4-dichlorophenoxy)methyl)azetidin-1-yl)carbonyl)-7-oxa-5-azaspiro[3.4]octan-6-one] | 100 | –
CC(Oc1ccc(F)c(F)c1F)C1CCN(C(=O)[C@H]2C[C@]3(COC(=O)N3)C2)CC1 (some centres unmarked) [Example 80, (2s,4s)-2-((4-(1-(2,3,4-trifluorophenoxy)ethyl)piperidin-1-yl)carbonyl)-7-oxa-5-azaspiro[3.4]octan-6-one] | 101 | –
CC(Oc1ccc(F)c(F)c1F)C1CCN(C(=O)[C@H]2C[C@]3(COC(=O)N3)C2)CC1 (some centres unmarked) [Example 81, (2s,4s)-2-((4-(1-(2,3,4-trifluorophenoxy)ethyl)piperidin-1-yl)carbonyl)-7-oxa-5-azaspiro[3.4]octan-6-one] | – | % inhibition (10 μM) (10 µM): 100%
CC(Oc1ccc(F)c(F)c1F)C1CCN(C(=O)[C@H]2C[C@]3(COC(=O)N3)C2)CC1 (some centres unmarked) [Example 82, (2s,4s)-2-((4-(1-(2,3,4-trifluorophenoxy)ethyl)piperidin-1-yl)carbonyl)-7-oxa-5-azaspiro[3.4]octan-6-one] | – | % inhibition (10 μM) (10 µM): 100%
O=C1N[C@]2(CO1)C[C@H](C(=O)N1CC(COc3cc(C(F)(F)F)cc(C(F)(F)F)c3)C1)C2 [Example 83, (2s,4s)-2-((3-((3,5-bis(trifluoromethyl)phenoxy)methyl)azetidin-1-yl)carbonyl)-7-oxa-5-azaspiro[3.4]octan-6-one] | 100 | –
CC(Oc1c(F)cc(F)cc1F)C1CCN(C(=O)[C@H]2C[C@]3(COC(=O)N3)C2)CC1 (some centres unmarked) [Example 85, (2s,4s)-2-((4-(1-(2,4,6-trifluorophenoxy)ethyl)piperidin-1-yl)carbonyl)-7-oxa-5-azaspiro[3.4]octan-6-one] | 100 | –
CC(Oc1c(F)cc(F)cc1F)C1CCN(C(=O)[C@H]2C[C@]3(COC(=O)N3)C2)CC1 (some centres unmarked) [Example 87, (2s,4s)-2-((4-(1-(2,4,6-trifluorophenoxy)ethyl)piperidin-1-yl)carbonyl)-7-oxa-5-azaspiro[3.4]octan-6-one] | – | % inhibition (10 μM): 100%
CC(Oc1c(F)cc(F)cc1F)C1CCN(C(=O)[C@H]2C[C@]3(COC(=O)N3)C2)CC1 (some centres unmarked) [Example 88, (2s,4s)-2-((4-(1-(2,4,6-trifluorophenoxy)ethyl)piperidin-1-yl)carbonyl)-7-oxa-5-azaspiro[3.4]octan-6-one] | – | % inhibition (10 μM): 100%
